Measurements taken from US11332463B2, “Spiropiperidine allosteric modulators of nicotinic acetylcholine receptors” (Merck Sharp & Dohme Corp., priority 2018, dated 2022).
Like-named read-outs stand apart in the source and are kept apart here.

Target: T1, human α7 nicotinic acetylcholine receptor (HEK cell line stably expressing human RIC-3 and human α7) (Homo sapiens, UniProt P36544)
T1 construct: host or cells: HEK cell line (PrecisION hnAChR α7/RIC-3)
Assay: Automated patch-clamp electrophysiology functional assay (Assay A), IonFlux HT, whole-cell population patch
Format: cell-based

[1] = HEK cells expressing human α7/RIC-3, test compound with or without 40 μM acetylcholine, holding potential −60 mV, room temperature, read-out: α7 nAChR Potency
[2] = automated patch-clamp electrophysiology functional assay (Assay A), read-out: α7 nAChR EC50

T1 sequence (P36544 23-502): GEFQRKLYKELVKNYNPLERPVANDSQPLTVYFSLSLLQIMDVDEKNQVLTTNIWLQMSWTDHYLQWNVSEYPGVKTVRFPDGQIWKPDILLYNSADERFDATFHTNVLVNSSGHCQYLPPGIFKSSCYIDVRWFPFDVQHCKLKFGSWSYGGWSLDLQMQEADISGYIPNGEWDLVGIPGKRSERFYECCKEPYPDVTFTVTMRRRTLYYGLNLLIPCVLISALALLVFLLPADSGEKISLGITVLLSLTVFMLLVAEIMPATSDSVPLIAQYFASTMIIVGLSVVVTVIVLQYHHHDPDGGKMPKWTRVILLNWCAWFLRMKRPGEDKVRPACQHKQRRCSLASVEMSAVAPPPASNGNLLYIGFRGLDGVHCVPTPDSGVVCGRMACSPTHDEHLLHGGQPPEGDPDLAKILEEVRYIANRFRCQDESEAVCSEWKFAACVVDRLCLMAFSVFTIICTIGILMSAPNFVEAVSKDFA

EC50 [1] [nM]	EC50 [2] [nM]	SMILES
500 to 5000	1200	NS(=O)(=O)N1CCC2(CC1)C[C@H]2c1noc(-c2c(F)cccc2C(F)(F)F)n1 [Example D12]
500 to 5000	700	COc1ccc(-c2nc([C@@H]3CC34CCN(S(N)(=O)=O)CC4)no2)cc1 [Example D13]
500 to 5000	–	NS(=O)(=O)N1CCC2(CC1)C[C@H]2c1noc(-c2ccc(OC(F)F)cc2)n1 [Example D14]
500 to 5000	1200	NS(=O)(=O)N1CCC2(CC1)C[C@H]2c1noc(-c2ccc(F)cc2F)n1 [Example D15]
100 to 500	160	NS(=O)(=O)N1CCC2(CC1)C[C@H]2c1noc(-c2ccc(F)cc2C(F)(F)F)n1 [Example D16]
500 to 5000	630	NS(=O)(=O)N1CCC2(CC1)C[C@H]2c1noc(-c2ccccc2C(F)(F)F)n1 [Example D17]
100 to 500	160	NS(=O)(=O)N1CCC2(CC1)C[C@H]2c1noc(-c2ccccc2OCC(F)(F)F)n1 [Example D18]
100 to 500	–	Cc1ccc(-c2nc([C@@H]3CC34CCN(S(N)(=O)=O)CC4)no2)c(C)c1 [Example D19]
100 to 500	200	NS(=O)(=O)N1CCC2(CC1)C[C@H]2c1noc(-c2ccccc2OC(F)(F)F)n1 [Example D20]
100 to 500	240	NS(=O)(=O)N1CCC2(CC1)C[C@H]2c1noc(-c2cc(F)ccc2OC(F)(F)F)n1 [Example D21]
100 to 500	410	NS(=O)(=O)N1CCC2(CC1)C[C@H]2c1noc(-c2cc(Cl)ccc2OC(F)(F)F)n1 [Example D22]
500 to 5000	1400	CC(C)(O)c1ccc(-c2nc([C@@H]3CC34CCN(S(N)(=O)=O)CC4)no2)cc1 [Example D23]
100 to 500	240	NS(=O)(=O)N1CCC2(CC1)C[C@H]2c1noc(-c2ccc(F)cc2OC(F)F)n1 [Example D24]
100 to 500	130	Cc1cc(C)c(-c2nc(C3CC34CCN(S(N)(=O)=O)CC4)no2)cc1C (stereo not drawn) [Example D25]
< 100	13	NS(=O)(=O)N1CCC2(CC1)C(c1noc(-c3ccccc3C3CC3)n1)C2(F)F (stereo not drawn) [Example D26]
100 to 500	310	Cc1cn(C2CC2)c2ccc(-c3nc([C@@H]4CC45CCN(S(N)(=O)=O)CC5)no3)cc12 [Example E1]
500 to 5000	1100	Cc1ncccc1-c1nc([C@@H]2CC23CCN(S(N)(=O)=O)CC3)no1 [Example E2]
5000 to 50000	7200	NS(=O)(=O)N1CCC2(CC1)C[C@H]2c1noc(Cc2c(F)cccc2C(F)(F)F)n1 [Example E4]
500 to 5000	–	NS(=O)(=O)N1CCC2(CC1)C[C@H]2c1noc(Cc2cc(C(F)(F)F)ccc2F)n1 [Example E5]
500 to 5000	930	Cc1cccc(C)c1Cc1nc([C@@H]2CC23CCN(S(N)(=O)=O)CC3)no1 [Example E6]
500 to 5000	–	NS(=O)(=O)N1CCC2(CC1)C[C@H]2c1noc(Cc2cc(F)ccc2C(F)(F)F)n1 [Example E9]
500 to 5000	3400	NS(=O)(=O)N1CCC2(CC1)C[C@H]2c1noc(C2(c3cc(F)ccc3F)CCC2)n1 [Example E10]

EC50 [1] [nM]	EC50 [2] [nM]	SMILES
500 to 5000	3700	NS(=O)(=O)N1CCC2(CC1)C[C@H]2c1noc(Cc2ccc(F)cc2C(F)(F)F)n1 [Example E12]
500 to 5000	2000	NS(=O)(=O)N1CCC2(CC1)C[C@H]2c1noc(C2(c3cccc(C(F)(F)F)c3)CC2)n1 [Example E14]
500 to 5000	1300	Cc1ccc(C)c(-c2nc([C@@H]3CC34CCN(S(N)(=O)=O)CC4)no2)n1 [Example E16]
500 to 5000	1400	NS(=O)(=O)N1CCC2(CC1)C[C@H]2c1noc(-c2cccc(C(F)(F)F)n2)n1 [Example E17]
500 to 5000	1100	NS(=O)(=O)N1CCC2(CC1)C[C@H]2c1noc(-c2ccnc(OCC(F)(F)F)c2)n1 [Example E18]
100 to 500	290	Cc1ccc(C(F)(F)F)nc1-c1nc([C@@H]2CC23CCN(S(N)(=O)=O)CC3)no1 [Example E19]
500 to 5000	2700	NS(=O)(=O)N1CCC2(CC1)C[C@H]2c1noc(C2CC3(CCC3)C2)n1 [Example E20]
100 to 500	400	CCn1nc(C)cc1-c1nc([C@@H]2CC23CCN(S(N)(=O)=O)CC3)no1 [Example E21]
500 to 5000	3000	NS(=O)(=O)N1CCC2(CC1)C[C@H]2c1noc(-c2cnn(CC(F)(F)F)c2)n1 [Example E22]
500 to 5000	4500	NS(=O)(=O)N1CCC2(CC1)C[C@H]2c1noc(-c2ocnc2C(F)(F)F)n1 [Example E23]
500 to 5000	3600	CCc1ncoc1-c1nc([C@@H]2CC23CCN(S(N)(=O)=O)CC3)no1 [Example E24]
500 to 5000	2200	NS(=O)(=O)N1CCC2(CC1)C[C@H]2c1noc(-c2ccn(CC(F)(F)F)n2)n1 [Example E25]
500 to 5000	570	NS(=O)(=O)N1CCC2(CC1)C[C@H]2c1noc(-c2conc2C2CC2)n1 [Example E26]
500 to 5000	1300	Cc1onc(-c2nc([C@@H]3CC34CCN(S(N)(=O)=O)CC4)no2)c1C [Example E27]
500 to 5000	–	Cc1noc(C)c1Cc1nc([C@@H]2CC23CCN(S(N)(=O)=O)CC3)no1 [Example E28]
500 to 5000	1600	NS(=O)(=O)N1CCC2(CC1)C[C@H]2c1noc(-c2conc2C(F)(F)F)n1 [Example E29]
500 to 5000	780	NS(=O)(=O)N1CCC2(CC1)C[C@H]2c1noc(-c2ccnn2C2CC2)n1 [Example E30]
500 to 5000	4300	NS(=O)(=O)N1CCC2(CC1)C[C@H]2c1noc(-c2cc(-n3ccnc3)ncc2C(F)(F)F)n1 [Example E31]
100 to 500	330	Cn1ncc(C(F)(F)F)c1-c1nc([C@@H]2CC23CCN(S(N)(=O)=O)CC3)no1 [Example E32]
100 to 500	470	NS(=O)(=O)N1CCC2(CC1)[C@H](c1noc(-c3ccnc(OC4CC4)c3)n1)C2(F)F [Example E33]
100 to 500	130	NS(=O)(=O)N1CCC2(CC1)[C@H](c1noc(-c3ccnn3C3CC3)n1)C2(F)F [Example E34]
100 to 500	250	CC(C)(C)n1nccc1-c1nc([C@@H]2C(F)(F)C23CCN(S(N)(=O)=O)CC3)no1 [Example E35]

EC50 [1] [nM]	EC50 [2] [nM]	SMILES
500 to 5000	1100	Cc1cnc2cc(-c3nc([C@@H]4C(F)(F)C45CCN(S(N)(=O)=O)CC5)no3)ccn12 [Example E36]
< 100	78	CCn1cc(-c2nc([C@@H]3C(F)(F)C34CCN(S(N)(=O)=O)CC4)no2)c(C2CC2)n1 [Example E37]
100 to 500	270	Cn1ncc(-c2nc([C@@H]3C(F)(F)C34CCN(S(N)(=O)=O)CC4)no2)c1C(F)(F)F [Example E38]
100 to 500	150	CC(C)(C)n1ncc(-c2nc([C@@H]3C(F)(F)C34CCN(S(N)(=O)=O)CC4)no2)c1C(F)(F)F [Example E39]
500 to 5000	840	NS(=O)(=O)N1CCC2(CC1)[C@H](c1noc(-c3cnn4c3CCCC4)n1)C2(F)F [Example E40]
< 100	15	Cc1n[nH]c(C2CC2)c1-c1nc([C@@H]2C(F)(F)C23CCN(S(N)(=O)=O)CC3)no1 [Example E41]
500 to 5000	1100	NS(=O)(=O)N1CCC2(CC1)[C@H](c1noc(-c3cnn4c3CCC4)n1)C2(F)F [Example E42]
100 to 500	500	Cn1nccc1-c1nc([C@@H]2C(F)(F)C23CCN(S(N)(=O)=O)CC3)no1 [Example E43]
100 to 500	–	Cn1nc(-c2nc([C@@H]3C(F)(F)C34CCN(S(N)(=O)=O)CC4)no2)c2c1CCC2 [Example E44]
500 to 5000	550	Cn1nc(C(F)(F)F)cc1-c1nc([C@@H]2C(F)(F)C23CCN(S(N)(=O)=O)CC3)no1 [Example E45]
500 to 5000	510	NS(=O)(=O)N1CCC2(CC1)[C@H](c1noc(-c3cc(C(F)(F)F)n(C4CC4)n3)n1)C2(F)F [Example E46]
100 to 500	–	NS(=O)(=O)N1CCC2(CC1)[C@H](c1noc(-c3c4c(nn3C3CC3)CCCC4)n1)C2(F)F [Example E47]
< 100	60	NS(=O)(=O)N1CCC2(CC1)[C@H](c1noc(-c3c(C(F)(F)F)cnn3C3CC3)n1)C2(F)F [Example E48]
100 to 500	270	NS(=O)(=O)N1CCC2(CC1)[C@H](c1noc(-c3ccnnc3C3CC3)n1)C2(F)F [Example E49]
500 to 5000	1400	NS(=O)(=O)N1CCC2(CC1)C[C@H]2c1noc(-c2ccnnc2C2CC2)n1 [Example E50]
500 to 5000	530	CC(C)Oc1cc(-c2nc([C@@H]3C(F)(F)C34CCN(S(N)(=O)=O)CC4)no2)ccn1 [Example E51]
500 to 5000	1700	Cc1cnn(C)c1-c1nc([C@@H]2CC23CCN(S(N)(=O)=O)CC3)no1 [Example E52]
500 to 5000	1200	NS(=O)(=O)N1CCC2(CC1)[C@H](c1noc(-c3cnn4c3CSC4)n1)C2(F)F [Example E53]
100 to 500	500	Cc1c(-c2nc([C@@H]3C(F)(F)C34CCN(S(N)(=O)=O)CC4)no2)c(C(F)(F)F)nn1C1CC1 [Example E54]
< 100	30	NS(=O)(=O)N1CCC2(CC1)[C@H](c1noc(-c3c(C4CC4)noc3C(F)(F)F)n1)C2(F)F [Example E55]
500 to 5000	2600	NS(=O)(=O)N1CCC2(CC1)[C@H](c1noc(-c3cccnc3)n1)C2(F)F [Example E56]
